Data published in publication PMC5940903, “Supramolecular Kandinsky circles with high antibacterial activity” (Nature Communications, 2018).
Read-outs that look alike come from different tables or passages of the source.

Columns and labels:
[1] = tested on: Methicillin-resistant S. aureus (MRSA, ATCC 33591); test: microbe, parasite or virus in culture; format: cell-based, Staphylococcus aureus; conditions: for MIC: Staphylococcus aureus, read-out: MRSA (MIC)
Description: Therefore, increasing the solubility of high generation of nested hexagons may enable more efficient studies in biological media and translate to effective antimicrobial activity. […] In addition, the smaller size of G1 was expected to lead to weaker interaction with bacterial membranes.
(§1) Minimum inhibitory concentrations (MICs) against MRSA.4 The antimicrobial activity of the compounds are tested against Methicillin-resistant S. aureus (MRSA, ATCC 33591). Briefly, a single colony of MRSA bacterium was inoculated in 3 mL TSB medium and allowed to grow overnight at 37 °C. The bacteria culture was then diluted at 1:100 and the bacteria were able to re-grow to mid-logarithmic phase in 6-8 h. Next, 50 µL compounds in 2-fold serially diluted solution with the concentrations of 0.1-25 µg/mL were added the 96-well plate containing 50 µL of bacteria suspension (1 × 10^6 CFU/mL) in each well. Following that, the plate was incubated at 37 °C for 16 h, and the absorption of those wells at 600 nm wavelength was read on a Biotek Synergy H1 microtiter […]
growth of MRSA in 24 h. […]

[2] = tested on: E. coli; test: MIC against Gram-negative bacterium E. coli; format: cell-based
[3] = tested on: human red blood cells (hRBCs); test: Hemolytic assay; format: cell-based; conditions: 37 °C, 1 h
Description: as §1
growth of MRSA in 24 h. The experiment were repeated at least three times with duplicates each […]
Hemolytic assay.4 The freshly drawn human red blood cells (hRBCs) were washed with 1× PBS buffer multiple times and centrifuged at 3500 rpm for 10 min, until the supernatant became clear. Next, the supernatant was removed, and the RBCs were diluted into 5% v/v suspension. The aliquots of suspension (50 µL) were then incubated with compounds at various concentrations in 2-fold serially diluted solution (50 µL) at 37 °C for 1 h. The mixture was centrifuged at 3500 rpm for 10 min and the supernatant was collected. Following that, 100 µL PBS was added to 30 µL of the supernatant, and the absorbance of the solution at 540 nm was read on a Biotek Synergy H1 plate reader. 2% Triton X-100 was used as the positive control and 1× PBS was used the negative control.
The hemolysis activity was calculated by the formula % hemolysis =
(Abssample-AbsPBS)/(AbsTriton-AbsPBS)×100%. The experiment was repeated at least three times with […]
Conductance measurement on the planar lipid bilayer. The lipids
1,2-dipalmitoyl-sn-glycero-3-phosphatidylglycerol (DPPG, Avanti Polar Lipids) and 1,2-dipalmitoyl-sn-glycero-3-phosphatidylethanolamine (DPPE, Avanti Polar Lipids) were mixed in chloroform (9:1 in molar ratio, 10 mg/mL, 20 µL). […]

[4] = Escherichia coli, read-out: E. coli (MIC)

| MRSA (MIC) ([1]; ATCC 33591) | Compound | MIC ([1]; MRSA ATCC 33591, TSB medium, 37 °C) | MIC ([2]; Escherichia coli; read-out: E. coli (MIC)) | Hemolysis (H50) [3] | MIC [1] | MIC [2, 4] |
| --- | --- | --- | --- | --- | --- | --- |
|  | CCCCCCOc1c(-c2ccc(N)cc2)c(OCCCCCC)c(-c2ccc(-c3cc(-c4ccccn4)nc(-c4ccccn4)c3)cc2)c(OCCCCCC)c1-c1ccc(-c2cc(-c3ccccn3)nc(-c3ccccn3)c2)cc1 [L1] | > 100 µg/mL | > 100 µg/mL | >250 |  |  |
| 0.5 µg/mL | CCCCCCCCCC(=O)N[C@@H](Cc1c[nH]c2ccccc12)C(=O)N[C@H](CC(N)=O)C(=O)N[C@@H](CC(=O)O)C(=O)N[C@@H]1C(=O)NCC(=O)N[C@@H](CCCN)C(=O)N[C@@H](CC(=O)O)C(=O)N[C@H](C)C(=O)N[C@@H](CC(=O)O)C(=O)NCC(=O)N[C@H](CO)C(=O)N[C@@H]([C@H](C)CC(=O)O)C(=O)N[C@@H](CC(=O)c2ccccc2N)C(=O)O[C@@H]1C [Daptomycin, daptomycin, reference compound] |  |  |  |  |  |
|  | CCCCCCOc1c(-c2ccc(-c3cc(-c4ccccn4)nc(-c4ccccn4)c3)cc2)c(OCCCCCC)c(-c2ccc(-[n+]3c(-c4ccc(-c5ccc(-c6cc(-c7ccccn7)nc(-c7ccccn7)c6)cc5)cc4)cc(-c4ccc(C(C)(C)C)cc4)cc3-c3ccc(-c4ccc(-c5cc(-c6ccccn6)nc(-c6ccccn6)c5)cc4)cc3)cc2)c(OCCCCCC)c1-c1ccc(-c2cc(-c3ccccn3)nc(-c3ccccn3)c2)cc1 [L2] |  |  | >250 | > 100 µg/mL | > 100 µg/mL |
|  | CCCCCCOc1c(-c2ccc(-c3cc(-c4ccccn4)nc(-c4ccccn4)c3)cc2)c(OCCCCCC)c(-c2ccc(-[n+]3c(-c4ccc(-c5ccc(-c6cc(-c7ccccn7)nc(-c7ccccn7)c6)cc5)cc4)cc(-c4ccc(-[n+]5c(-c6ccc(-c7ccc(-c8ccc(-c9cc(-c%10ccccn%10)nc(-c%10ccccn%10)c9)cc8)cc7)cc6)cc(-c6ccc(C(C)(C)C)cc6)cc5-c5ccc(-c6ccc(-c7ccc(-c8cc(-c9ccccn9)nc(-c9ccccn9)c8)cc7)cc6)cc5)cc4)cc3-c3ccc(-c4ccc(-c5cc(-c6ccccn6)nc(-c6ccccn6)c5)cc4)cc3)cc2)c(OCCCCCC)c1-c1ccc(-c2cc(-c3ccccn3)nc(-c3ccccn3)c2)cc1 [L3] |  |  | >250 | > 100 µg/mL | > 100 µg/mL |
